Key:
[1] = test system: human umbilical vein endothelial cells (HUVEC); experiment: Endothelial tube formation assay on matrigel; format: cell-based
Protocol: Growth factor reduced Matrigel (10 μL/well) was allowed to polymerize for 1 h on angiogenesis 96 well μ-plates (ibidi, GmbH) at 37° C., 5% CO2. HUVEC (5×10^3 cells/well) suspended in 50 μL of pre-warmed Eagle Basal Medium (CTRL), 10% FBS, or conditioned media from WM266^S, or WM266^R cells, were seeded on matrigel and allowed to form tubes at 37° C. in humidified air with 5% CO2 for 6 h. In order to quantify tube formation, images were acquired and the number of tubes formed by cord-like structures exceeding 100 μm in length were visualized using Axiovision 4.8 software (Carl Zeiss) and counted.
This finding was of particular interest in the light of the known involvement of VEGF in melanoma progression and resistance to therapy (23). […] Of note, for our results only tube-like structures exceeding 100 μm in length were considered. […] As control, 10% FBS employed as a source of angiogenic growth factors, elicited a considerable response rising to 204% over basal (FIG. 24). […] In order to find a correlation between miRNAs deregulation and […]

[2] = test system: A375^DR melanoma cells; experiment: Colony formation / growth of cells double resistant to BRAF and MEK inhibitors; format: cell-based, human; details: miRNAs targeted individually; FIG. 18 left
From the text: Data are mean±s.d. from three independent experiments. P<0.05.
Human melanoma cell lines M14 (ATCC® HTB-129™) and A375 (ATCC® CRL-1619™) (both V600E) were from American Type Culture Collection (ATCC®). LOX IMVI (V600E) melanoma cell line (EZT-LOXI-1) was from EZ Byosistems™. WM266 melanoma cell line (V600D)(WM266-4-01-0001) was from ROCKLAND™ antibodies & assays. Resistant melanoma cells were selected by treating them for about two months with increasing drug concentrations every two weeks (from 50 nM to 2 μM). A375^DR cells were selected in the presence of both BRAF and MEK inhibitors, as previously done for M14^R, WM266^R, LOX IMVI^R and A375^R. All human melanoma cell lines used in the present work were cultured in RPMI supplemented with 10% (vol/vol) FBS. Human umbilical vein endothelial cells (HUVEC)s, were employed between the third and the seventh passage, were grown in Eagle Basal Medium (EBM) supplemented with 4% FBS, 0.1% gentamicin, 1 μg/mL hydrocortisone, […] and 12 μg/mL bovine brain extract (Cambrex, Bio Science).
Next, the growth inhibitory effect of simultaneously targeting miRNAs combinations was determined. In detail, for these experiments antagomiRs recognising the UPMIRNAs (amiR-4443: aaaacccacgcctccaa (SEQ ID NO: 10) and amiR-4488: cgccggagcccgccccct (SEQ ID NO: 11)) in different combinations with DOWNMIRNAs mimics (miR-204-5p: […] (SEQ ID NO: 2) and miR-199b-5p […] (SEQ ID NO: 1)) were transiently transfected in melanoma cell lines. […] In addition, the effect of targeting miRNAs individually or in combinations was assessed in a cell line rendered double resistant to both BRAF and MEK inhibitors (called A375^DR). Other investigators have previously reported that double drug resistant melanoma cell lines are more difficult to growth inhibit (5). In fact no growth inhibition was observed effect on A375^DR when the four selected miRNAs were targeted individually (FIG. 18, left panel). […]

[3] = test system: sensitive M14 and WM266 melanoma cells; experiment: Cell viability / proliferation after transient transfection of miRNAs, with or without a BRAFi; format: cell-based, human; details: enforced expression by transient transfection, FIG. 12; for effect of BRAFi on cell viability: in the presence of a BRAFi
Protocol: (§1) Viability of cells was examined with 3-(4,5-dimethylthiazol-2-yl)-2,5-diphenyltetrazolium bromide Cell Titer 96 AQueous One Solution Cell Proliferation Assay (Promega), according to the manufacturer's protocol. The plates were analyzed in a Multilabel Counter (Bio-Rad Laboratories). Cell viability was also determined by crystal violet staining. Briefly, the cells were stained for 20 min at room temperature with staining solution (0.5% crystal violet in 30% methanol), washed four times with water and then dried. Cells were then dissolved in a Methanol/SDS solution and the adsorbance (595 nm) was read using a microplate ELISA reader.
(§2) Next, the biological consequences of overexpressing or inhibiting the expression of the four selected miRNAs above miR-4443, miR-4488, miR-204-5p and miR-199b-5p were assessed by transient transfections in sensitive M14 and WM266 melanoma cells in the presence or not of a BRAFi in order to evaluate melanoma cell proliferation and apoptosis induction.

[4] = test system: VEGFA in WM266^R melanoma cells; experiment: Western blot analysis of VEGFA protein levels after miRNA transfection; format: cell-based, human; details: miRNA overexpressed in WM266^R cells vs Scrambled miRNA; FIG. 26
From the text: FIG. 26 WM266^R melanoma cells transfected with Scrambled miRNA or miR-199b-5p were harvested and subjected to Western blot analysis to detect VEGFA and GAPDH protein levels.
Antibodies against VEGFA and GAPDH were obtained from Santa Cruz Biotechnology. Vemurafenib and trametinib were obtained from Selleck Chemicals. TaqMan probes for GAPDH, VEGF, BCL2, miR-4443, miR-4488, miR-204-5p, miR-199b-5p, miR-630, miR-1234, is-3676 (previously named miR-3676-3p), miR-145-5p and RNU48 were purchased from Applied Biosystems. Melanoma cells were lysed with RIPA buffer; 50 μg of total protein were resolved under reducing conditions by 8% SDS-PAGE and transferred to reinforced nitrocellulose (BA-S 83, Schleider and Schuell, Keene, N.H., USA). The membranes were blocked with 5% non fat dry milk in PBS 0.1% Tween 20, and incubated with the different primary antibodies. The membranes were rehydrated and probed with anti-GAPDH, to estimate the protein equal loading. Densitometric analysis was performed using Quantity One Program (Bio-Rad Laboratories GmbH) and results were expressed as mean values from three independent experiments.
VEGF increased expression and release members of miR-199 family were considered (25). […] Therefore, miR-199b-5p was overexpressed in WM266^R cells.

[5] = test system: drug sensitive and resistant M14 cells; experiment: In vitro short term colony formation assay; format: cell-based, human; details: overexpression in BRAFi drug resistant cells (M14^R); FIG. 15
Protocol: as §1, with “reader. […]” for “reader.”

[6] = test system: M14^S melanoma cells; experiment: Development of BRAFi-resistant colonies under chronic BRAFi exposure; format: cell-based, human; details: miRNA overexpressed, cells exposed chronically to a BRAFi (1 μM vemurafenib) for 28 days; FIG. 16
Protocol: FIG. 16 M14^S melanoma cells were transfected with the indicated miRNAs for 72 h and then stained with Crystal violet (day 0). The remaining plates were treated with 1 μM vemurafenib every 48 h and then stained after 7, 14, 21 and 28 days. Data are mean±s.d. from three independent experiments. P<0.05. The pictures shown are representative of three independent experiments.
Hereafter, the effects of the DOWNMIRNAs on the development of drug resistance in vitro were determined. […] In contrast, growth of control cells transfected with scrambled-miRNA was initially impaired by the presence of a BRAF inhibitor (from 7 to 21 days of drug exposure), but gave rise to resistant colonies at later times (day 28) (FIG. 16).

[7] = test system: sensitive M14 and WM266 melanoma cells; experiment: Apoptosis induction measured by Caspase 3/7 activation after transient transfection, with or without a BRAFi; format: cell-based, human; details: enforced expression by transient transfection, FIG. 13; for BRAFi induction of apoptosis, measured by Caspase 3/7 activation: in the presence of a BRAFi
Protocol: as §2

Substance | A375^DR colony formation / growth inhibition [2] | effect of BRAFi on cell viability [3] | BRAFi induction of apoptosis, measured by Caspase 3/7 activation [7] | other results
Avastin: used to inhibit VEGFR activity; called VEGFR inhibitor [reference compound] |  |  |  | tube formation induced by CM from WM266^R melanoma cells ([1]; addition of VEGFR inhibitor, FIG. 25): significantly inhibited
amiR-4443: antagomiR recognising miR-4443: aaaacccacgcctccaa (antisense AAAACCCACGCCTCCAA; listed as DNA, chemistry not given here) | not able to affect |  |  | 
amiR-4488: antagomiR recognising miR-4488: cgccggagcccgccccct (antisense CGCCGGAGCCCGCCCCCT; listed as DNA, chemistry not given here) | not able to affect |  |  | 
miR-199b-5p: miRNA mimic: cccaguguuuagacuaucuguuc (SEQ ID NO:1) (CCCAGUGUUUAGACUAUCUGUUC; listed as RNA, chemistry not given here; listed as Homo sapiens) | not able to affect | potentiates BRAFi activity | potentiates BRAFi activity | cell proliferation [3]: inhibits cell proliferation; tube formation induced by CM from transfected WM266^R cells ([1]; conditioned medium of WM266^R cells transfected with the miRNA, FIG. 27): lost the capability to induce tube formation; VEGF expression (Western Blot) [4]: able to reduce specifically VEGF expression; colony formation [5]: strongly impaired colony formation; ability to form BRAFi-resistant colonies [6]: completely lost the ability to form BRAFi-resistant colonies; apoptosis (Caspase 3/7 activation) [7]: induces apoptosis
miR-4443: UPMIRNA, uuggaggcguggguuuu (SEQ ID NO: 10), enforced expression by transient transfection (UUGGAGGCGUGGGUUUU; listed as RNA, chemistry not given here; listed as Homo sapiens) |  | decreases the effect of BRAFi | decreases the effect of BRAFi | 
miR-4488: UPMIRNA, agggggcgggcuccggcg (SEQ ID NO: 11), enforced expression by transient transfection (AGGGGGCGGGCUCCGGCG; listed as RNA, chemistry not given here; listed as Homo sapiens) |  | decreases the effect of BRAFi | decreases the effect of BRAFi | 
